Results reported in US12251382B2, “Substituted amino-pyrimidine compound for use in a method for treatment and prevention of multiple sclerosis” (Merck Patent GmbH, priority 2018, dated 2025).

Assays:
[1] = Phase I Part 1: plasma pharmacokinetics after single oral dose; format: in vivo, human; conditions: for MRT / AUC0−∞ / Cmax / T1/2: geometric mean
Protocol: To test dose proportionality, PK parameters were analyzed graphically as AUC/dose and Cmax/dose and via a power model (PK parameter=α*dose^β) approach with log-transformed PK parameters as the dependent variable and log-transformed dose as the independent variable.

M1 macrophages = conditions: in vitro; cited from earlier work

SMILES: C=CC(=O)N1CCC(CNc2ncnc(N)c2-c2ccc(Oc3ccccc3)cc2)CC1 [Evobrutinib, 1-(4-(((6-amino-5-(4-phenoxyphenyl)pyrimidin-4-yl)amino)methyl)piperidin-1-yl)prop-2-en-1-one]
- Time after dosing up to which concentrations above LLOQ were measurable ([1]; 350 and 500 mg, some (n=3) subjects): up to 48 h
- Vd/F ([1]; both sexes, human, plasma, oral, all doses, read-out: Relevant Vz/F): ~650 L
- MRT ([1]; human, plasma, oral, single dose 25 mg): 1.82 h
- MRT ([1]; human, plasma, oral, single dose 50 mg): 1.82 h
- MRT ([1]; human, plasma, oral, single dose 100 mg): 1.7 h
- MRT ([1]; human, plasma, oral, single dose 200 mg): 1.8 h
- MRT ([1]; human, plasma, oral, single dose 350 mg): 2.26 h
- MRT ([1]; human, plasma, oral, single dose 500 mg): 2.19 h
- PK profile in words (clearance, Vz/f, t1/2) ([1]; humans): moderate-to-high plasma clearance, medium Vz/f, and short t1/2
- Apparent clearance (CL/F) ([1]; range across single doses): 2,553-3,995 mL/min
- AUC0−∞ ([1]; single dose 25 mg): 104 ng·h/mL
- Cmax ([1]; single dose 25 mg): 69.9 ng/mL
- T1/2 ([1]; single dose 25 mg): 1.80 h
- AUC0−∞ ([1]; single dose 50 mg): 326 ng·h/mL
- Cmax ([1]; single dose 50 mg): 234 ng/mL
- T1/2 ([1]; single dose 50 mg): 2.06 h
- AUC0−∞ ([1]; single dose 100 mg): 434 ng·h/mL
- Cmax ([1]; single dose 100 mg): 309 ng/mL
- T1/2 ([1]; single dose 100 mg): 2.56 h
- AUC0−∞ ([1]; single dose 200 mg): 856 ng·h/mL
- Cmax ([1]; single dose 200 mg): 555 ng/mL
- T1/2 ([1]; single dose 200 mg): 2.09 h
- AUC0−∞ ([1]; single dose 350 mg): 1,910 ng * h/mL
- Cmax ([1]; single dose 350 mg): 846 ng/mL
- T1/2 ([1]; single dose 350 mg): 6.81 h
- AUC0−∞ ([1]; single dose 500 mg): 3,220 ng * h/mL
- Cmax ([1]; single dose 500 mg): 1510 ng/mL
- T1/2 ([1]; single dose 500 mg): 6.63 h
- Apparent geometric mean terminal half-life (t1/2) ([1]; single doses 25-200 mg): 1.8 to 2.6 h
- Apparent geometric mean terminal half-life (t1/2) ([1]; single doses 350 and 500 mg): 6.6 to 6.8 h
- Plasma concentration remaining after Cmax ([1]; within 8 h, dose-independent): less than 1 % of Cmax
- Relevant t1/2 ([1]; within the first 8 h, all doses): ~2 h
- Effects on macrophages (M1 macrophages): inhibiting the activation, differentiation and polarisation of M1 macrophages and by promoting the M2 macrophage-phenotype
